Assay type in all cases: in vivo, rat
Test [1] relates to old rats. Kind of test: Food intake of old rats fed supplemented diets for 14 weeks. The following applies: for decrease in food intake per week: male Wistar rats, supplemented diet from age 21 months for 14 weeks, linear regression. An excerpt: (§1) A cohort of male Wistar rats born and breed in a non-specific-pathogen-free animal facility (Unité de Nutrition Comparée, INRA Theix) was used for the study. When rats were 18 month old they were weighted monthly to evaluate their body weight change and blood was sampled in order to quantify inflammatory markers (acute phase proteins: α2-macroglobulin and fibrinogen). At the age of 21 months, rats were divided in two groups matched for body weight, body weight loss, and inflammatory status. Rats were fed with supplemented diets, starting at the age of 21 months and for 14 weeks. The cysteine diet consisted in the commercial pelleted diet A04 (SAFE/UAR, Scientific Animal Food and Engineering, Villemoisson-sur-Orge, France) supplemented with 4.0 g of L-cysteine (Sigma) per kg, and the control diet was supplemented with 2.9 g of L-alanine (Jerafrance) per kg (iso-nitrogenous diets). Experimental diets have been prepared at the Unite Préparation Aliments Expérimentaux, INRA Jouy-en-Josas.
Food intake (FIG. 4) decreased with time and was lower for the alanine diet.

Test [2] in a line: Body weight of old rats fed supplemented diets. Conditions: for Final BW: body weight at end of supplementation; for Initial BW: body weight at start of supplementation (baseline), age 21 months; for BW change: rat, in vivo.
Text: as §1
The decrease accelerated at the end of the experiment since body weights of the two last weeks were different from each of the previous ones.

The nature of test [3]: Skeletal muscle and organ weights of old rats fed supplemented diets. Conditions: for Colon weight / EDL weight / Gastrocnemius weight / Kidneys weight / Liver weight / Small intestine weight / Soleus weight / Tibialis weight: end of supplementation.
Text: as §1

The subject of test [4] is old rats. Kind of test: Survival of old rats fed supplemented diets (Kaplan-Meier, log-rank test). Conditions: male Wistar rats, supplemented diet from age 21 months for 14 weeks; log-rank test=0.054, P=0.816.
Text: as §1
Survival curves were generated by Kaplan-Meier method (FIG. 2) and compared by the log-rank test in order to analyze the effect of cysteine supplementation on mortality.

As for `C[C@H](N)C(=O)O` [Alanine, L-alanine, reference compound], the “decrease in food intake per week” value in test [1] is 0.96 % per week. Besides, in test [2], the “Final BW” value is 595 ± 13 g, the “Initial BW” value stood at 657 ± 10 g and the BW change is on record as −7.03 ± 1.60 %/13 wk. Further, in test [3], the Colon weight amounted to 2.68 ± 0.06 g, the EDL weight is 222 ± 4 mg, the Gastrocnemius weight is 2.51 ± 0.04 g and the Kidneys weight came to 4.32 ± 0.19 g. In test [3], the Liver weight was 18.4 ± 0.5 g, the Small intestine weight was 11.4 ± 0.3 g, the Soleus weight turned out to be 177 ± 3 mg and the Tibialis weight is listed as 888 ± 16 mg.
For `N[C@@H](CS)C(=O)O` [Cysteine, L-cysteine], in test [4], the mortality rate result is “did not change”. The “effect on decrease in food intake associated with aging” value in test [1] (4 g cysteine per kg supplemented diet, rats about 22.5 months old) is “blunts the decrease in food intake”. In addition, in test [1], the “decrease in food intake per week” value was “unchanged”. In addition, in test [2], the “Final BW” value is on record as 613 ± 12 g, the “Initial BW” value came out at 661 ± 10 g and the BW change is reported as −6.27 ± 1.18 %/13 wk. The “liver weight compared with control rats” value in test [3] (cysteine supplemented rats vs alanine control) is recorded as “higher liver weight than control rats”. In test [3], this molecule showed a Colon weight of 2.76 ± 0.07 g, an EDL weight of 228 ± 4 mg, a Gastrocnemius weight of 2.51 ± 0.04 g and a Kidneys weight of 4.31 ± 0.17 g. For the same molecule, in test [3], the Liver weight came to 20.0 ± 0.4 g, the Small intestine weight is listed as 12.0 ± 0.2 g, the Soleus weight was 178 ± 4 mg and the Tibialis weight was 889 ± 18 mg.

Source of the values: US9233090B2, “Cysteine and food intake” (Nestec S.A., priority 2010, dated 2016).
